Assays:
[1] = test system: TNFα, IL-6 and P-cadherin mRNAs; test: UVB psoriasis model: RT-PCR of TNF-α, IL-6 and P-cadherin mRNAs in skin; assay type: in vivo, mouse; details: 20 μM lotion topical at 0, 1 and 2 h post-irradiation
Text: Inbred, 6-8 weeks of age female C57/BL6, C3H/HeN and Skh:hr-1 (hairless) mice were fed normal stock rodent rations and tap water ad libitum. One day prior to UVB irradiation, the dorsal hair of C57/BL6 and C3H/HeN mice was removed by clipping. A single UVB tube (Phillips TL-40W/12 RS, Eindhoven, The Netherlands) emitting a spectrum of 280-365 nm with a peak emission at 310 nm, was used as the light source for the experiments. The radiation was filtered through a sheet of 0.125 mm cellulose acetate (Grafix Plastics, OH, USA) to block wavelengths below 290 nm. Irradiance was measured with an IL 1500 radiometer (International Light Inc. Newburyport, Mass.) with a UVB detector (SEE 240/UVB) calibrated to the spectral output, and recorded as 1.71×10-4 W/cm2. Groups of three female C57/BL6 and C3H/HeN mice were exposed unrestrained in their cages to 7.24 kJ/m2 UVB radiation equal to 3× the minimal erythemal dose (MED) in these haired mice (fur clipped), an exposure of approximately 70 min. Control mice were clipped of fur in the same manner but were not exposed to UVB irradiation. Groups of 3 Skh:hr-1 mice received 3.59 kJ/m2 of UVB, which is equal to 3×MED on hairless mouse skin. Temperature under the radiation source was stabilised during the exposures with surrounding curtains and an electric fan.
Cpd. […]

INFγ = INFγ production by murine splenocytes; assay type: cell-based, mouse; details: 10 μM; Con A
Procedure: Male Skh-1 (hairless) mice, approximately six weeks old were killed by cervical dislocation. Single cell suspensions were made from the spleen and erythrocytes were lysed in buffer (0.14M NH4Cl, 17 mM Tris, pH 7.2). The remaining splenocytes were cultured in RPMI-1640 (Gibco) supplemented with 10% (v:v) FBS, 2 mM L-glutamine, pen/strep and 50 μM 2-mercaptoethanol. Splenocytes were added to quadruplicate wells containing either the T cell mitogen concanavalin A (Con A, Sigma-Aldrich—0. 4 μg/well), the B-cell mitogen LPS (Sigma-Aldrich—1 μg/well) or no mitogen, as well as test compound at a concentration of 10 μM in DMSO. Samples were analysed after a 3 day incubation at 37° C. in 5% CO2 in air. Cell viability was assessed by adding MTT to each well, incubating for a further 4 hrs and then developing colour with 0.04N HCl in isopropanol. Supernatant samples were frozen at −80° C. and IL-6, IFN-γ and TNFα were detected in triplicate using ELISA kits (BD Biosciences).

In the case of `COc1ccc(C2=Cc3ccc(O)cc3OC2)cc1OC` [Cpd. 18, 7-Hydroxy-3′,4′-dimethoxyisoflav-3-ene], the “production of TNFα, IL-6 and P-cadherin mRNAs post-UVB” value [1] is reported as “markedly reduced”.
In the case of `Oc1ccc(C2=Cc3ccc(O)c(Br)c3OC2)cc1` [Cpd. 20, 4′,7-Dihydroxy-8-bromoisoflav-3-ene], the “INFγ synthesis by T cells” value (INFγ) is reported as “marked reduction”.

Source: patent US20090233999A1, “COMPOSITIONS AND THERAPEUTIC METHODS INVOLVING ISOFLAVONES AND ANALOGUES THEREOF” (NOVOGEN RESEARCH PTY LTD, priority 1999, published 2009)
